Our source for the IC50 values is patent US12011444B2, “N-substituted indole derivatives as PGE2 receptor modulators” (Idorsia Pharmaceuticals Ltd, priority 2015, dated 2024).

Broadly, the IC50 is the concentration that gives 50% inhibition.

The target of one experiment is PTGER2 (EP2) (Homo sapiens (Human), UniProt P43116). As to the kind of experiment: hEP2 b-arrestin assay (PathHunter HEK 293 PTGER2 b-arrestin cells). It is filed as cell-based. As to conditions: hEP2 b-arrestin assay (values without asterisk). A digest of the protocol: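 HEK293 cells expressing ProLink-tagged EP2 and EA-fused β-arrestin 2 (enzyme fragment complementation) were seeded 24 h, pre-incubated with compound 15 min at 37 °C, then stimulated with 5 μM PGE2 (final) for 120 min.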
PTGER2 (EP2), sequence (P43116 whole entry, the tested form may be a part): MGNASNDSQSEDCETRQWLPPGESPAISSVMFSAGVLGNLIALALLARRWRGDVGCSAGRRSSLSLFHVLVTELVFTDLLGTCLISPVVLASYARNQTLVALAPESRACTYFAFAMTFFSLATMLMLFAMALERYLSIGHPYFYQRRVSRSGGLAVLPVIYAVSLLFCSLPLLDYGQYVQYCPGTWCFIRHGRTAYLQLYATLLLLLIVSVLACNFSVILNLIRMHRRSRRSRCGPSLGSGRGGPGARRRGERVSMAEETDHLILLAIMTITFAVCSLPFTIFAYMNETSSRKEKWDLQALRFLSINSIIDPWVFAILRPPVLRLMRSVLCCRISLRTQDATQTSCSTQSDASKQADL

In the next experiment the target is PTRGER4 (EP4) (Homo sapiens (Human), UniProt P35408). As to the kind of experiment: hEP4 b-arrestin assay (PathHunter HEK 293 PTGER4 b-arrestin cells). It is filed as cell-based. Conditions: hEP4 b-arrestin assay (values without asterisk). A digest of the protocol:
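Stably transfected HEK293 cells carrying EP4–ProLink and β-arrestin 2–EA (β-gal fragment complementation), pre-incubated with compound 15 min at 37 °C, then stimulated with PGE2 (20 nM final) for 120 min at 37 °C. Chemiluminescence read after 1 h detection reagent at room temperature; activity per concentration expressed as percent of DMSO control.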

PTRGER4 (EP4), sequence (P35408 whole entry, looked up, the tested form may be a part): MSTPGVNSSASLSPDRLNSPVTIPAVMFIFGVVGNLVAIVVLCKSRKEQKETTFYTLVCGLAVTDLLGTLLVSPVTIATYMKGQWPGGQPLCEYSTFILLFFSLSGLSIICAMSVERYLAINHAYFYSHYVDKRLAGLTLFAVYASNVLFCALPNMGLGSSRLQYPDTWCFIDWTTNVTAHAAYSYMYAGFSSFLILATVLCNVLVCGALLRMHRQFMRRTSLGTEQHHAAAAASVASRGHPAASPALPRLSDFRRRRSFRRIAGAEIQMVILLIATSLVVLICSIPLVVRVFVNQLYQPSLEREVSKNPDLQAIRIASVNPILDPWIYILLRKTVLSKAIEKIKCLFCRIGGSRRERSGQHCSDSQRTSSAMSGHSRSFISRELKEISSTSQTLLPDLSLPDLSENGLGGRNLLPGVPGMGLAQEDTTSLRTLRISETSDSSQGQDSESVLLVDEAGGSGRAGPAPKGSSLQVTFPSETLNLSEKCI

Take `CCc1nc(-c2cc(NCCn3c(C)cc4c(OC)ccc(F)c43)ncn2)sc1C(=O)O` [Example 1037, 4-Ethyl-2-{6-[2-(7-fluoro-4-methoxy-2-methyl-indol-1-yl)-ethylamino]-pyrimidin-4-yl}-thiazole-5-carboxylic acid]: the figures for the IC50 at PTGER2 (EP2) and on PTRGER4 (EP4) were 60 nM and 100 nM, respectively.
The matching figures for `COc1ccc(F)c2c1cc(C)n2CCNc1cc(-c2nc(C(C)(C)C)c(C(=O)O)s2)ncn1` [Example 1038, 4-tert-Butyl-2-{6-[2-(7-fluoro-4-methoxy-2-methyl-indol-1-yl)-ethylamino]-pyrimidin-4-yl}-thiazole-5-carboxylic acid]: 64 nM and 20 nM.
As to `COc1ccc(F)c2c1cc(C)n2CCNc1cc(-c2ccc(C(=O)O)c(OC3CC4(COC4)C3)c2)ncn1` [Example 1039, 4-{6-[2-(7-Fluoro-4-methoxy-2-methyl-indol-1-yl)-ethylamino]-pyrimidin-4-yl}-2-(2-oxaspiro[3.3]hept-6-yloxy)-benzoic acid], the IC50 came out at 104 nM against PTGER2 (EP2) and 224 nM at PTRGER4 (EP4).
For the compound `CCOc1cc(-c2cc(NCCn3c(C)cc4c(OC)ccc(F)c43)ncn2)ccc1C(=O)CO` [Example 1040, 1-(2-Ethoxy-4-{6-[2-(7-fluoro-4-methoxy-2-methyl-indol-1-yl)-ethylamino]-pyrimidin-4-yl}-phenyl)-2-hydroxy-ethanone], the IC50 is 91 nM at PTGER2 (EP2) and 407 nM on PTRGER4 (EP4).
The matching figures for `COC(=O)Nc1ccc(-c2cc(NCCn3c(C)cc4c(OC)ccc(F)c43)ncn2)cc1` [Example 1041, (4-{6-[2-(7-Fluoro-4-methoxy-2-methyl-indol-1-yl)-ethylamino]-pyrimidin-4-yl}-phenyl)-carbamic acid methyl ester]: 26 nM and 246 nM.
On to `CCOc1cc(-c2cc(NCCn3c(C)cc4c(OC)ccc(F)c43)ncn2)ccc1NCC(=O)OC` [Example 1042, (2-Ethoxy-4-{6-[2-(7-fluoro-4-methoxy-2-methyl-indol-1-yl)-ethylamino]-pyrimidin-4-yl}-phenylamino)-acetic acid methyl ester], for which the IC50 was determined as 11 nM at PTGER2 (EP2) and 57 nM on PTRGER4 (EP4).
For `CCOc1cc(-c2cc(NCCn3c(C#N)cc4c(OC)ccc(F)c43)ncn2)sc1C(=O)OCC(=O)O` [Example 1043, 5-{6-[2-(2-Cyano-7-fluoro-4-methoxy-indol-1-yl)-ethylamino]-pyrimidin-4-yl}-3-ethoxy-thiophene-2-carboxylic acid carboxymethyl ester], the half-maximal inhibitory concentration (IC50) was found to be 5 nM at PTGER2 (EP2) and 1 nM against PTRGER4 (EP4).
`CCOc1cc(-c2cc(NCCn3c(C#N)cc4c(OC)ccc(F)c43)ncn2)sc1C(=O)OCC(=O)N(C)C` [Example 1044, 5-{6-[2-(2-Cyano-7-fluoro-4-methoxy-indol-1-yl)-ethylamino]-pyrimidin-4-yl}-3-ethoxy-thiophene-2-carboxylic acid dimethylcarbamoylmethyl ester]: the IC50 against PTGER2 (EP2) came to 9 nM; against PTRGER4 (EP4), 3 nM.
The matching figures for `CCCC(=O)OCOC(=O)c1sc(-c2cc(NCCn3c(C#N)cc4c(OC)ccc(F)c43)ncn2)cc1OCC` [Example 1045, 5-{6-[2-(2-Cyano-7-fluoro-4-methoxy-indol-1-yl)-ethylamino]-pyrimidin-4-yl}-3-ethoxy-thiophene-2-carboxylic acid butyryloxymethyl ester]: 16 nM and 4 nM.
The matching figures for `CCOC(=O)OCOC(=O)c1sc(-c2cc(NCCn3c(C#N)cc4c(OC)ccc(F)c43)ncn2)cc1OCC` [Example 1046, 5-{6-[2-(2-Cyano-7-fluoro-4-methoxy-indol-1-yl)-ethylamino]-pyrimidin-4-yl}-3-ethoxy-thiophene-2-carboxylic acid ethoxycarbonyloxymethyl ester]: 27 nM and 5 nM.
For the compound `CCOc1cc(-c2cc(NCCn3c(C#N)cc4c(OC)ccc(F)c43)ncn2)sc1C(=O)OCc1oc(=O)oc1C` [Example 1047, 5-{6-[2-(2-Cyano-7-fluoro-4-methoxy-indol-1-yl)-ethylamino]-pyrimidin-4-yl}-3-ethoxy-thiophene-2-carboxylic acid 5-methyl-2-oxo-[1,3]dioxol-4-ylmethyl ester], the results for the IC50 against PTGER2 (EP2) and on PTRGER4 (EP4) were 5 nM and 3 nM, respectively.
Take `CCOc1cc(-c2cc(NCCn3c(C#N)cc4c(OC)ccc(F)c43)ncn2)sc1C(=O)OCCN(C)C` [Example 1048, 5-{6-[2-(2-Cyano-7-fluoro-4-methoxy-indol-1-yl)-ethylamino]-pyrimidin-4-yl}-3-ethoxy-thiophene-2-carboxylic acid 2-dimethylamino-ethyl ester]: the values for the IC50 against PTGER2 (EP2) and on PTRGER4 (EP4) were 10 nM and 4 nM, respectively.
The matching figures for `CCOc1cc(-c2cc(NCCn3c(C#N)cc4c(OC)ccc(F)c43)ncn2)sc1C(=O)Oc1ccccc1` [Example 1049, 5-{6-[2-(2-Cyano-7-fluoro-4-methoxy-indol-1-yl)-ethylamino]-pyrimidin-4-yl}-3-ethoxy-thiophene-2-carboxylic acid phenyl ester]: 21 nM and 10 nM.
As for `CCOC(=O)C#Cc1ccc(-c2cc(NCCn3c(C#N)cc4c(OC)ccc(F)c43)ncn2)cc1OC` [Example 1050, (4-{6-[2-(2-Cyano-7-fluoro-4-methoxy-indol-1-yl)-ethylamino]-pyrimidin-4-yl}-2-methoxy-phenyl)-propynoic acid ethyl ester], the figures for the IC50 against PTGER2 (EP2) and against PTRGER4 (EP4) were 34 nM and 19 nM, respectively.
The matching figures for `CCOc1cc(-c2cc(NCCn3c(C)cc4c(OC)ccc(F)c43)ncn2)sc1-c1nnn[nH]1` [Example 1051, {6-[4-Ethoxy-5-(1H-tetrazol-5-yl)-thiophen-2-yl]-pyrimidin-4-yl}-[2-(7-fluoro-4-methoxy-2-methyl-indol-1-yl)-ethyl]-amine]: 2 nM and 4 nM.
The corresponding values for `CCOc1cc(-c2cc(NCCn3c(C)cc4c(OC)ccc(F)c43)ncn2)sc1C(=N)NO` [Example 1052, 3-Ethoxy-5-{6-[2-(7-fluoro-4-methoxy-2-methyl-indol-1-yl)-ethylamino]-pyrimidin-4-yl}-N-hydroxy-thiophene-2-carboxamidine] are 3 nM and 7 nM.
For `CCOc1cc(-c2cc(NCCn3c(C)cc4c(OC)ccc(F)c43)ncn2)sc1C(C)O` (centres unmarked) [Example 1053, 1-(3-Ethoxy-5-{6-[2-(7-fluoro-4-methoxy-2-methyl-indol-1-yl)-ethylamino]-pyrimidin-4-yl}-thiophen-2-yl)-ethanol], the IC50 stood at 10 nM against PTGER2 (EP2) and 100 nM against PTRGER4 (EP4).
The matching figures for `CCOc1cc(-c2cc(NCCn3c(C)cc4c(OC)ccc(F)c43)ncn2)sc1-c1noc(=O)[nH]1` [Example 1054, 3-(3-Ethoxy-5-{6-[2-(7-fluoro-4-methoxy-2-methyl-indol-1-yl)-ethylamino]-pyrimidin-4-yl}-thiophen-2-yl)-[1,2,4]oxadiazol-5(4H)-one]: 1 nM and 1 nM.
The matching figures for `COc1ccc(F)c2c1cc(C#N)n2CCNc1cc(-c2ccc(C3(F)COC3)s2)ncn1` [Example 1055, 7-Fluoro-1-(2-{6-[5-(3-fluoro-oxetan-3-yl)-thiophen-2-yl]-pyrimidin-4-ylamino}-ethyl)-4-methoxy-1H-indole-2-carbonitrile]: 249 nM and 60 nM.
